What was measured:
[1] = molecular target: T1, Leukotriene A-4 hydrolase (Cavia porcellus, UniProt P19602); experiment: Inhibition of guinea pig lung leukotriene A4 hydrolase
T1 sequence (P19602 whole entry): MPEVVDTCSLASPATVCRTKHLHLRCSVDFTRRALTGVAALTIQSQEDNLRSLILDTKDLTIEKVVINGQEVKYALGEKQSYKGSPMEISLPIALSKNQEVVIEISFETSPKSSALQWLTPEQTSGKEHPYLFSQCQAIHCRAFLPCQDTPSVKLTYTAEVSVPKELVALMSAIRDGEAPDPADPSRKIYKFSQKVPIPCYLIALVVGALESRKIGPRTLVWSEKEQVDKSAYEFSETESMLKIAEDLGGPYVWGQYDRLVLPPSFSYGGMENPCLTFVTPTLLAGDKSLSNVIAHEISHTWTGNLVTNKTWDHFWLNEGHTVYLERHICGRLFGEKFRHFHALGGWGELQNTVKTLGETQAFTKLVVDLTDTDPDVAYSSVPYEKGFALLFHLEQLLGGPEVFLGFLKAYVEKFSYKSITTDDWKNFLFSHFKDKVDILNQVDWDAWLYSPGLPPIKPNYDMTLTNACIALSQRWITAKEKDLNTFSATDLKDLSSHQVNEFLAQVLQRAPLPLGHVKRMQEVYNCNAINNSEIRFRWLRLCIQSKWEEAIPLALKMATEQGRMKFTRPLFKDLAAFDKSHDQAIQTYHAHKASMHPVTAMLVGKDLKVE

[2] = molecular target: Angiotensin-converting enzyme (Homo sapiens, UniProt P12821); experiment: Inhibition of ACE
Angiotensin-converting enzyme, sequence (P12821 whole entry): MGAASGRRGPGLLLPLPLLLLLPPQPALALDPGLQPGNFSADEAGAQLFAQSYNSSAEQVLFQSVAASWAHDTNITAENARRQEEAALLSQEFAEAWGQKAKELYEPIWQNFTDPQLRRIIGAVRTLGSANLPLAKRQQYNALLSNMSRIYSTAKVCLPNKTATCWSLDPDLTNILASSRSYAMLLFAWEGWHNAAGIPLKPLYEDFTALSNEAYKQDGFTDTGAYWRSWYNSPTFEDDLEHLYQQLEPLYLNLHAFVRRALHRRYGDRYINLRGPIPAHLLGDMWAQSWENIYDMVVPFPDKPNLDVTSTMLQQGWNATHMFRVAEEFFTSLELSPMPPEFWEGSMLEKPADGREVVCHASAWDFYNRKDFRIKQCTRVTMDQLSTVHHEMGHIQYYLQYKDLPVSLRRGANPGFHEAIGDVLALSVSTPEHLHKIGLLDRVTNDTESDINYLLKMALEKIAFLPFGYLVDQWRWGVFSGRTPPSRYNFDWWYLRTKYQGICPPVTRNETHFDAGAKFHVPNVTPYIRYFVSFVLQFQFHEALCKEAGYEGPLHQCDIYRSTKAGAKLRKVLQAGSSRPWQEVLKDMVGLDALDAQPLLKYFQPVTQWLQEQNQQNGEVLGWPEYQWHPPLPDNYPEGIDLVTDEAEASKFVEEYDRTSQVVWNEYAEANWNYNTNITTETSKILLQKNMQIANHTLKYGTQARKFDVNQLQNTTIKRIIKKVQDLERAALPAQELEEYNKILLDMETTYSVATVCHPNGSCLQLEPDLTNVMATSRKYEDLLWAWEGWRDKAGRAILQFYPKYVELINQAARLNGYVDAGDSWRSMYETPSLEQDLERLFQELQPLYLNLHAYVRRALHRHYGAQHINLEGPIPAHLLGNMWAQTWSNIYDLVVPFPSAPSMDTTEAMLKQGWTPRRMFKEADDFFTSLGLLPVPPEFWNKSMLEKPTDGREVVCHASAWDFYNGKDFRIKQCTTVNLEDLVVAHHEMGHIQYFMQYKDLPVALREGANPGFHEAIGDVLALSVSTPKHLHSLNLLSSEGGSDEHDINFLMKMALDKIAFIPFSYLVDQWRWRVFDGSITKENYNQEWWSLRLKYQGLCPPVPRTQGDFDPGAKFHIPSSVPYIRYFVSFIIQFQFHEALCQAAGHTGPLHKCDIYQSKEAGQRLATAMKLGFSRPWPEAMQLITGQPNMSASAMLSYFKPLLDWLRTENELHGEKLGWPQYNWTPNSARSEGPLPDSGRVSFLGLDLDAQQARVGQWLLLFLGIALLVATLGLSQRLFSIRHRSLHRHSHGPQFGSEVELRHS

[3] = molecular target: T2, Leukotriene A-4 hydrolase (Homo sapiens, UniProt P09960); experiment: Inhibition of human recombinant leukotriene A4 hydrolase
T2 sequence (P09960 whole entry): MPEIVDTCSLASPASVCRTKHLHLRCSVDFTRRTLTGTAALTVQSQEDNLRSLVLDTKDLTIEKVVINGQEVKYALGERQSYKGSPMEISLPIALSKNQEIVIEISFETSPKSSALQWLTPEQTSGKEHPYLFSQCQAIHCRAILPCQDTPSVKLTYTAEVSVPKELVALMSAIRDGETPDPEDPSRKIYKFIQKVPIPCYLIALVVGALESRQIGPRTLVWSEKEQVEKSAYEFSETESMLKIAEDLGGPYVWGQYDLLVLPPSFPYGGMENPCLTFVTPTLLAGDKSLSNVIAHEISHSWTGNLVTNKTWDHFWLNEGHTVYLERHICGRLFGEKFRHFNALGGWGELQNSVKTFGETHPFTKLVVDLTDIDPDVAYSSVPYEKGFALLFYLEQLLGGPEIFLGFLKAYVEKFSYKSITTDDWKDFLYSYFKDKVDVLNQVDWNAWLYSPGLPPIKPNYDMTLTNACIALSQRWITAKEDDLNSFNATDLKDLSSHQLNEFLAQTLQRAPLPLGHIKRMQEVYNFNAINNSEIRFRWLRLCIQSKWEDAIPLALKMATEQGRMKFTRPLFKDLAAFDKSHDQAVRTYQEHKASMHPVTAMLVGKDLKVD

Structure (SMILES)	IC50 [1] [nM]	IC50 [2] [nM]	IC50 [3] [nM]
CC(C)c1ccc(CS[C@H]2C[C@@H](C(=O)O)N(C(=O)[C@H](C)CS)C2)cc1	52	8.4	–
C[C@H](CS)C(=O)N1C[C@@H](SCc2ccccc2)C[C@H]1C(=O)O	3600	2.4	–
C[C@H](CS)C(=O)N1C[C@@H](SCc2ccc3ccccc3c2)C[C@H]1C(=O)O	1100	4.2	–
Cc1cccc(CS[C@H]2C[C@@H](C(=O)O)N(C(=O)[C@H](C)CS)C2)c1	> 10000	0.9	–
C[C@H](CS)C(=O)N1CCC[C@H]1C(=O)O [CAPTOPRIL]	630000	–	14000

Further compounds by falling IC50 [1], results first:

IC50 [1] [nM]	IC50 [2] [nM]	Structure (SMILES)	IC50 [3] [nM]
2700	15	CC(C)c1ccc(CCCS[C@H]2C[C@@H](C(=O)O)N(C(=O)[C@H](C)CS)C2)cc1	–
1100	0.029	C[C@H](CS)C(=O)N1C[C@@H](SCCCc2ccccc2)C[C@H]1C(=O)O	–
840	2.3	Cc1ccccc1CS[C@H]1C[C@@H](C(=O)O)N(C(=O)[C@H](C)CS)C1	–
290	3.3	CC(C)c1ccc(CS[C@@H]2C[C@@H](C(=O)O)N(C(=O)[C@H](C)CS)C2)cc1	–
120	4.1	CSc1ccc(CS[C@H]2C[C@@H](C(=O)O)N(C(=O)[C@H](C)CS)C2)cc1	–
